Values belong to the molecule of their own block, whether it stands above or below them.
What was measured:
[1] = tested on: A2E formation from all-trans-retinal and ethanolamine; experiment: In vitro A2E formation in the presence of aromatic amine
Protocol: 100 mg (355 μmoles) of all-trans-retinal was dissolved in 3 mL followed by the addition of 9.5 μL of glacial acetic acid 9.5 μL of ethanolamine (155 μmoles). This solution was aliquoted into 300 μL fractions. 3-aminoethylbenzoate (15.5 μmoles) was added to the samples at 0, 2, 3.75, 14, 16.25, 18.0833 19.917 23.75 and 48 hrs. […] The solutions were shaken at room temperature for 48 hrs. The solutions were then kept at −80° C. and 15 μL was diluted to 250 μL (methanol). The solutions (15 μL) were then analyzed on a reverse phase (C18-5 μm-4.6 mm×150 mm) column on a linear gradient 85%-96% methanol/water and UV detector at 430 nm to determine the amount of A2E formation. The percent A2E formation was compared to A2E formation at 48 h in the absence of aromatic amine.

abcr knockout mice = experiment: In vivo A2E accumulation in abcr knockout mice; conditions: versus no drug
Protocol: Effects on accumulation of A2E in abcr knockout mice by farnesyl decyl ketone and N-palmityl farnesimide were investigated. Mice were injected with 50 mg/kg drug in 25 microliters of DMSO or with only DMSO for the control group once or twice a week. After 2 to 2½ months, the mice were sacrificed, and A2E and iso-A2E were harvested and quantitated from 4 eyes for each drug or control.

[2] = tested on: bovine retinal pigment epithelial membrane system (11-cis-retinol formation); experiment: 11-cis-retinol formation in RPE membranes (IMH activity / RPE65 function); assay type: biochemical
Protocol: A control reaction mixture without any inhibitor was also incubated at room temperature for 15 min. At the end of the 15 min incubation, all-trans-retinol [11-12-^3H2] (0.2 μM) was added to the reaction mixtures (100 mM Tris pH 8.0, […] of RPE protein, 0.2% BSA 100 μM of DPPC, 1 mM of DTT and 0.2 μM all-trans-retinol [11-12-^3H2]) and incubated at room temperature for 30 min. At the end of this 30 minutes of incubation, an aliquot of the reactions were quenched to verify the equal addition of all-trans-retinol [11,12-^3H2] and the effect of these inhibitors on LRAT. After this the control reaction mixture was incubated with atRA (60 & 6 μM), 13cRA (60 & 6 μM) or 4-HPR (60 & 6 μM) for 15 min. Now all the reaction mixtures were incubated with 30 μM of apo-rCRALBP (100 mM Tris pH 8.0, 7.7 μg of RPE protein, 0.2% BSA 100 μm of DPPC, 1 mM of DTT 30 μM apo-rCRALBP and 0.2 μM all-trans-retinol [11-12-^3H2]) at 37° C. for 30 minutes. At the end of this incubation period the 200 μL reaction mixture was quenched by the addition of 750 μL ice cold methanol after which 100 μL of 1M sodium chloride solution was added, and 500 μl hexane (containing butylated hydroxy toluene at 1 mg/mL) was added to effect extraction of the retinoids. The retinoids were analyzed as previously described (27). The amount of 11-cis-retinol formed was used as a measurement of IMH activity. All experiments were performed in triplicate and the average values of these measurements were used for analysis.
A control reaction mixture without any inhibitor was also incubated at room temperature for 15 min. At the end of the 15 min incubation, all-trans-retinol [11-12-^3H2] (0.2 μM) was added to the reaction mixtures (100 mM Tris pH 8.0, 76.7 μg of RPE protein, 0.2% BSA 100 μM of DPPC, 1 mM of DTT and 0.2 μM all-trans-retinol [11-12-^3H2]) and incubated at room temperature for 30 min. […] The retinoids were analyzed as previously described (27). […]

tLRAT = biological target: T1, tLRAT (Homo sapiens, UniProt O95237); experiment: mRPE65 concentration-dependent esterification of vitamin A by tLRAT; assay type: biochemical; conditions: FIG. 11C
T1 construct: This form of LRAT has the two N and C-terminal transmembrane domains of LRAT truncated, and is His-tagged; made in house
T1 sequence (O95237 31-196 limits assumed): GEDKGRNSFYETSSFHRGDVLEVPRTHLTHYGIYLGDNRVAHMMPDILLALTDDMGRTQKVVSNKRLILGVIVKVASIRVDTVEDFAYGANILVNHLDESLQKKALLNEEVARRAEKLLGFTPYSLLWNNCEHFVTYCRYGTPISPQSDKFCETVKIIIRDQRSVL
Protocol: Effect of sRPE65 on tLRAT mediated esterification: The activity of LRAT was determined by monitoring the formation of tLRAT catalyzed retinyl esters from added all-trans-retinol [11,12-^3H2] sRPE65 and/or DPPC/dodecyl maltoside. In all of the studies reported here truncated LRAT (tLRAT) is used (Jahng et al., 2003b). This form of LRAT has the two N and C-terminal transmembrane domains of LRAT truncated, and is His-tagged which allows for the bacterial expression of LRAT and for its full purification (Bok et al., 2003). LRAT has never been purified and is not expressible in bacteria. Kinetic studies on LRAT and tLRAT show them to behave identically (Bok et al., 2003). […] The amount of all-trans-retinyl palmitate [11,12-^3H2] formed as determined by normal phase HPLC and was used as a measure of activity. […]
mRPE65 concentration-dependent esterification of vitamin A: The effect of mRPE65 concentration on the rates of all-trans-retinyl palmitate formation was determined by monitoring the tLRAT catalyzed formation of all-trans-retinyl palmitate from added [11,12-^3H2]-all-trans-retinol and mRPE65. […] The amount of all-trans-retinyl palmitate [11,12-^3H2] formed as determined by normal phase-HPLC and was used as a measure of activity. The kinetic paramaters KM (Kapp) and N were calculated as described before (Segal 1993). […]

Molecule: CCOC(=O)c1cccc(N)c1 [3-aminoethylbenzoate, ethyl 3-aminobenzoate]
A2E % formation (48 Hrs = 100) ([1]; amine added at 0 hrs): 3.98%
A2E % formation (48 Hrs = 100) ([1]; amine added at 2 hrs): 8.67%
A2E % formation (48 Hrs = 100) ([1]; amine added at 3.75 hrs): 7.71%
A2E % formation (48 Hrs = 100) ([1]; amine added at 14 hrs): 19.73%
A2E % formation (48 Hrs = 100) ([1]; amine added at 16.25 hrs): 19.25%
A2E % formation (48 Hrs = 100) ([1]; amine added at 18.0833 hrs): 23.70%
A2E % formation (48 Hrs = 100) ([1]; amine added at 19.91667 hrs): 27.65%
A2E % formation (48 Hrs = 100) ([1]; amine added at 23.75 hrs): 22.44%
A2E % formation (48 Hrs = 100) ([1]; amine added at 48 hrs): 100.00%

Molecule: CCCCCCCCCCC(=O)CC=C(C)CCC=C(C)CCC=C(C)C [Farnesyl decyl ketone, farnesyl decyl ketone]
reduction of total accumulation (abcr knockout mice): about 80%

Molecule: CC1=C(/C=C/C(C)=C/C=C/C(C)=C/C(=O)Nc2ccc(O)cc2)C(C)(C)CCC1 [N-(4-hydroxyphenyl)retinamide]
inhibition of 11-cis-retinol formation, pre-incubation with inhibitor ([2]; 60 μM or 6 μM, pre-incubation before vitamin A, FIG. 8): substantially weaker

Molecule: CCCCCCCCCCCCCCCCNC(=O)C/C=C(\C)CC/C=C(\C)CCC=C(C)C [N-Palmityl farnesimide, palmityl farnesimide]
reduction of total accumulation (abcr knockout mice): about 47%

Molecule: CC1=C(/C=C/C(C)=C/C=C/C(C)=C/C(=O)O)C(C)(C)CCC1 [all-trans-retinoic acid]
inhibition of 11-cis-retinol formation, membranes pre-incubated with vitamin A before inhibitor ([2]; 60 μM, data not shown): not susceptible to inhibition

Hill plot N (tLRAT): 2.54
B1: mRPE65: membrane-associated, palmitoylated form of RPE65; acts as palmitoyl donor for LRAT (protein, UniProt Q16518 2-533, looked up)
Retinoid isomerohydrolase: SIQVEHPAGGYKKLFETVEELSSPLTAHVTGRIPLWLTGSLLRCGPGLFEVGSEPFYHLFDGQALLHKFDFKEGHVTYHRRFIRTDAYVRAMTEKRIVITEFGTCAFPDPCKNIFSRFFSYFRGVEVTDNALVNVYPVGEDYYACTETNFITKINPETLETIKQVDLCNYVSVNGATAHPHIENDGTVYNIGNCFGKNFSIAYNIVKIPPLQADKEDPISKSEIVVQFPCSDRFKPSYVHSFGLTPNYIVFVETPVKINLFKFLSSWSLWGANYMDCFESNETMGVWLHIADKKRKKYLNNKYRTSPFNLFHHINTYEDNGFLIVDLCCWKGFEFVYNYLYLANLRENWEEVKKNARKAPQPEVRRYVLPLNIDKADTGKNLVTLPNTTATAILCSDETIWLEPEVLFSGPRQAFEFPQINYQKYCGKPYTYAYGLGLNHFVPDRLCKLNVKTKETWVWQEPDSYPSEPIFVSHPDALEEDDGVVLSVVVSPGAGQKPAYLLILNAKDLSEVARAEVEINIPVTFHGLFKKS
modifications: palmitoylated membrane-associated form
notes: membrane-associated, palmitoylated form of RPE65; acts as palmitoyl donor for LRAT

Reference: US7566808B2, “Management of ophthalmologic disorders, including macular degeneration” (President and Fellows of Harvard College, priority 2004, dated 2009)
